Measurements from paper PMC5090206, “Fluselenamyl: A Novel Benzoselenazole Derivative for PET Detection of Amyloid Plaques (Aβ) in Alzheimer’s Disease” (Scientific Reports, 2016).

Molecular target: Aβ plaques (Homo sapiens, UniProt P05067)
Test: MicroPET/CT imaging in APP/PS1 and WT mice
Format: in vivo
Details: for distribution volume ratio (DVR): cortical ROI, cerebellum reference, RefLogan
Experimental: To directly access the potential of [^18F]-9 to bind Aβ plaques in vivo, we performed microPET/CT imaging in age-matched APP^+/−/PS1^+/− mice (n = 3) compared their WT counterparts, 5 min-2 h post tail-vein injection. […] Time activity curves (TAC) also indicated higher retention of activity within transgenic mice brains compared with their WT counterparts (Fig. 10). Additionally, ROI (cortical regions) were also analyzed using linearized method with a reference region (cerebellum) via Reference Logan plot (RefLogan), and distribution volume ratios (DVR) were obtained. The analysis indicated a statistically significant DVR value of 1.18 for transgenic mice brain compared with that of 1.03 for WT brains. These smaller differences in DVR values of targeted regions in transgenic mice compared with that of WT counterparts could also be attributed to a lack of true negative reference region in aged PS1/APP mice[57]. […] The differences between these tracers in this rodent model could be attributed to ability of [^18F]-9 for targeting both diffuse and fibrillary plaques. To further evaluate, whether or not [^18F]-9 offers significant advantage over other approved tracers, the agent would need to be further investigated for its performance in other AD rodent models (APP23 and Tg2576).
Scientific Reports Version of August 4, 2016 approved guidelines. 15-month-old APP+/-/PS1+/- mice were imaged using intravital multiphoton microscopy to assess pharmacokinetic profiles of the 5. The thinned-skull cranial windows were prepared on the day prior to imaging, as previously described16-18. Briefly, mice were anesthetized under volatile isoflurane (2% induction, 1.5% maintenance), the scalp and periosteum were removed to expose the skull.
A speed drill and microsurgical blade (Surgistar) were used to thin the skull until the skull window ([…]
For imaging 5 labeled plaques, two-photon fluorescence was generated with 800 nm excitation, and fluorescent emission was detected in the range of 435-485nm. […]

Sequence of Aβ plaques (P05067 672-711 limits assumed): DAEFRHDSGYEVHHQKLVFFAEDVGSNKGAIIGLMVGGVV

CN(C)c1ncc(/C=C\c2nc3cc(OCC[18F])ccc3[se]2)cn1 [[^18F]-9]
higher retention in transgenic mice brains vs WT (APP+/−/PS1+/− vs WT mice, n = 3, p < 0.05): 1.2 folds
distribution volume ratio (DVR) (WT brains): 1.03
distribution volume ratio (DVR) (transgenic mice brain): 1.18
